Measurements taken from patent publication US10800791B2, “Triazole ACC inhibitors and uses thereof” (Gilead Apollo, LLC, priority 2015, dated 2020).
≈ marks a conversion by molar mass, not a printed value. Like-named read-outs stand apart in the source and are kept apart here.

Key:
Septoria tritici (St) = assay: Growth inhibition assay of fungal pathogens, St; assay type: cell-based; settings: Zymoseptoria tritici, 48 h
Method in brief: (§1)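 Inhibition percentages reflect 48 h OD600 and visual scores relative to a 2% DMSO control. Test concentrations were 50, 10, 2 ppm or 2, 0.4, 0.08 ppm final, applied to spores in 17% V8 medium.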

Diplodia maydis (Dm) = assay: Growth inhibition assay of fungal pathogens, Dm; assay type: cell-based; settings: Stenocarpella maydis, 48 h
Method in brief: as §1

Rhizoctonia solani (Rs) = assay: Growth inhibition assay of fungal pathogens, Rs; assay type: cell-based; settings: 48 h
fungal (fACC2) = fungal (fACC2) (UniProt Q00955); settings: read-out: fACC2 (in vitro ACC2 Inhibition Assay, IC50), ADP-Glo, 5 nM ACC2, 20 μM ATP, 20 μM acetyl-CoA
[1] = test system: Collectotrichum graminicola (Cg); assay: Growth inhibition assay of fungal pathogens, Cg; assay type: cell-based; settings: 48 h
Method in brief: as §1

[2] = test system: Fusarium virguliforme (Fv); assay: Growth inhibition assay of fungal pathogens, Fv; assay type: cell-based; settings: 48 h
Method in brief: as §1

C. parapsilosis = assay: Antifungal Activity Assay (broth microtiter MIC), C. parapsilosis; assay type: cell-based, Candida parapsilosis; settings: Lodderomyces parapsilosis, ATCC22019, 48 h
Method in brief: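 CLSI M27-A3 broth microdilution in RPMI 1640+MOPS, final inoculum 2.5×10^3 CFU/mL from overnight Sabouraud cultures grown at 35 °C. MIC read visually at 48 h against growth control.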

human (hACC2) = human (hACC2) (Homo sapiens, UniProt O00763); assay: In vitro ACC inhibition assay (ADP-Glo), hACC2; assay type: biochemical; settings: 5 nM ACC2, 20 μM ATP, 20 μM acetyl-CoA
Description: The detailed procedure is as follows. […] 10 μL ADP glo reagent was added. […] 20 μL kinase detection reagent was added.

[3] = test system: Phytophthora capsici (Pc); assay: Growth inhibition assay of fungal pathogens, Pc; assay type: cell-based; settings: 48 h
Method in brief: as §1

[4] = test system: Fusarium moniliforme (Fm); assay: Growth inhibition assay of fungal pathogens, Fm; assay type: cell-based; settings: for IC90: Fusarium verticillioides, 48 h, read-out: Concentration at 90% Inhibition Fm
Method in brief: as §1

[5] = Fusarium moniliforme, growth inhibition at 48 hours vs 2% DMSO control

Sequence of human (hACC2) (O00763 whole entry): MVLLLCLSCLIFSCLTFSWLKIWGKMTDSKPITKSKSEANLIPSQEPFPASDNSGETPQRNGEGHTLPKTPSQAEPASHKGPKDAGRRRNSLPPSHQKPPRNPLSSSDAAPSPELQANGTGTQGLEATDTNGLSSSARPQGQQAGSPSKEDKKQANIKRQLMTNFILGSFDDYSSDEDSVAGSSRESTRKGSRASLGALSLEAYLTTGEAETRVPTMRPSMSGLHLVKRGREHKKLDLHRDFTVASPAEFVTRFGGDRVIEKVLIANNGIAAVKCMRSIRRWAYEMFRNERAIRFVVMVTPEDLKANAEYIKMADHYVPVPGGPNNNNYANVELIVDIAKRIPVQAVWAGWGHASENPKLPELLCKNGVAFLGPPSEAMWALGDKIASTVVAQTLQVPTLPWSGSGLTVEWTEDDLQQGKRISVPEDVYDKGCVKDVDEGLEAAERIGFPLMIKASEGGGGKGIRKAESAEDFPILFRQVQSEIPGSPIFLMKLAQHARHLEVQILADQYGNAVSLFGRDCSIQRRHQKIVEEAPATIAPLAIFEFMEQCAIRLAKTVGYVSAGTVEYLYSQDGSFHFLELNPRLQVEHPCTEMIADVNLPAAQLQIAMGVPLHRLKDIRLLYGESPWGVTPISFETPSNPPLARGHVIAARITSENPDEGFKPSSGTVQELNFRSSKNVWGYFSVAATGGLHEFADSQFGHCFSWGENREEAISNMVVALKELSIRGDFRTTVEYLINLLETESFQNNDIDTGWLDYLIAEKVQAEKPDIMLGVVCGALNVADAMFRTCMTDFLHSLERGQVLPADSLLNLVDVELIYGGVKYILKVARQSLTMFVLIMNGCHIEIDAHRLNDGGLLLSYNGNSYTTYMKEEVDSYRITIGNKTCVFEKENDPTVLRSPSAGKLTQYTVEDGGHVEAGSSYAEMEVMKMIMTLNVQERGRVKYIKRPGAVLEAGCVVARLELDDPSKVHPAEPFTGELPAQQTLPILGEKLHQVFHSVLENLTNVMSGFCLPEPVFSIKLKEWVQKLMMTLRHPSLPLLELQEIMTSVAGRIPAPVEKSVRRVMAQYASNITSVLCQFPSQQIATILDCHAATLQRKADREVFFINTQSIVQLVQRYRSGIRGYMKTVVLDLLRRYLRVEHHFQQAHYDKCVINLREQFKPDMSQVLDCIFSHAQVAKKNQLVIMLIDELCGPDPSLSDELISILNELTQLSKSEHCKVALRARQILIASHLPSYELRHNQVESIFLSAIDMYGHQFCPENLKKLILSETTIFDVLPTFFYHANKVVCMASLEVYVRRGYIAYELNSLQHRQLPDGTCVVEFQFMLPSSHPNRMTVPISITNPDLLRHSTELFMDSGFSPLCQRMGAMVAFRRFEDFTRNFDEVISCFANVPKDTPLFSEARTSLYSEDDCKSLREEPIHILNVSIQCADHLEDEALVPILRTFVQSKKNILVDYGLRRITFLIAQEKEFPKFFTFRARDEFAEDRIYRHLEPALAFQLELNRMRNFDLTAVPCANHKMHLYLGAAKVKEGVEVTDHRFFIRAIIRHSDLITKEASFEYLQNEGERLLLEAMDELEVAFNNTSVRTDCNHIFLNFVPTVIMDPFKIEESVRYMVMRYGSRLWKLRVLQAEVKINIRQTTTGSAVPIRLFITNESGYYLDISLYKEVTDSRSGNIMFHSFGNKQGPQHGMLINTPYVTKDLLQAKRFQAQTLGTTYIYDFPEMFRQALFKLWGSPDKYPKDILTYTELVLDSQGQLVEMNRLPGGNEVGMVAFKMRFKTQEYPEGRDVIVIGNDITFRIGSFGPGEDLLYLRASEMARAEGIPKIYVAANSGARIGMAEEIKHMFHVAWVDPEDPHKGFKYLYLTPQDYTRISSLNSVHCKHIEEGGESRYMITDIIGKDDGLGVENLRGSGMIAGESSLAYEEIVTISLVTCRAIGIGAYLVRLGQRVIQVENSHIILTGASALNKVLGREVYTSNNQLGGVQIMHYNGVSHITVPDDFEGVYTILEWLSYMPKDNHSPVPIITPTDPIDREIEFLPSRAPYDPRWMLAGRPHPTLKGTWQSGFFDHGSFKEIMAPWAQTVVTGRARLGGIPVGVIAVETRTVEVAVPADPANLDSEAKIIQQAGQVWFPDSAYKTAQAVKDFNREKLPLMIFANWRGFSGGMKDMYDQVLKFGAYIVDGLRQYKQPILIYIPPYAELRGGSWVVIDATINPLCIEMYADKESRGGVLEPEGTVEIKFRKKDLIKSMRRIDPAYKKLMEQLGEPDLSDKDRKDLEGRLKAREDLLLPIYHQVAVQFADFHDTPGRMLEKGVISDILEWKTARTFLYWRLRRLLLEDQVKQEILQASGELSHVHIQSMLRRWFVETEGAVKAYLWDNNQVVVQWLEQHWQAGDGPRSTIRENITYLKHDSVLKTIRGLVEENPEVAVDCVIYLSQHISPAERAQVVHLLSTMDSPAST
Sequence of fungal (fACC2) (Q00955 whole entry): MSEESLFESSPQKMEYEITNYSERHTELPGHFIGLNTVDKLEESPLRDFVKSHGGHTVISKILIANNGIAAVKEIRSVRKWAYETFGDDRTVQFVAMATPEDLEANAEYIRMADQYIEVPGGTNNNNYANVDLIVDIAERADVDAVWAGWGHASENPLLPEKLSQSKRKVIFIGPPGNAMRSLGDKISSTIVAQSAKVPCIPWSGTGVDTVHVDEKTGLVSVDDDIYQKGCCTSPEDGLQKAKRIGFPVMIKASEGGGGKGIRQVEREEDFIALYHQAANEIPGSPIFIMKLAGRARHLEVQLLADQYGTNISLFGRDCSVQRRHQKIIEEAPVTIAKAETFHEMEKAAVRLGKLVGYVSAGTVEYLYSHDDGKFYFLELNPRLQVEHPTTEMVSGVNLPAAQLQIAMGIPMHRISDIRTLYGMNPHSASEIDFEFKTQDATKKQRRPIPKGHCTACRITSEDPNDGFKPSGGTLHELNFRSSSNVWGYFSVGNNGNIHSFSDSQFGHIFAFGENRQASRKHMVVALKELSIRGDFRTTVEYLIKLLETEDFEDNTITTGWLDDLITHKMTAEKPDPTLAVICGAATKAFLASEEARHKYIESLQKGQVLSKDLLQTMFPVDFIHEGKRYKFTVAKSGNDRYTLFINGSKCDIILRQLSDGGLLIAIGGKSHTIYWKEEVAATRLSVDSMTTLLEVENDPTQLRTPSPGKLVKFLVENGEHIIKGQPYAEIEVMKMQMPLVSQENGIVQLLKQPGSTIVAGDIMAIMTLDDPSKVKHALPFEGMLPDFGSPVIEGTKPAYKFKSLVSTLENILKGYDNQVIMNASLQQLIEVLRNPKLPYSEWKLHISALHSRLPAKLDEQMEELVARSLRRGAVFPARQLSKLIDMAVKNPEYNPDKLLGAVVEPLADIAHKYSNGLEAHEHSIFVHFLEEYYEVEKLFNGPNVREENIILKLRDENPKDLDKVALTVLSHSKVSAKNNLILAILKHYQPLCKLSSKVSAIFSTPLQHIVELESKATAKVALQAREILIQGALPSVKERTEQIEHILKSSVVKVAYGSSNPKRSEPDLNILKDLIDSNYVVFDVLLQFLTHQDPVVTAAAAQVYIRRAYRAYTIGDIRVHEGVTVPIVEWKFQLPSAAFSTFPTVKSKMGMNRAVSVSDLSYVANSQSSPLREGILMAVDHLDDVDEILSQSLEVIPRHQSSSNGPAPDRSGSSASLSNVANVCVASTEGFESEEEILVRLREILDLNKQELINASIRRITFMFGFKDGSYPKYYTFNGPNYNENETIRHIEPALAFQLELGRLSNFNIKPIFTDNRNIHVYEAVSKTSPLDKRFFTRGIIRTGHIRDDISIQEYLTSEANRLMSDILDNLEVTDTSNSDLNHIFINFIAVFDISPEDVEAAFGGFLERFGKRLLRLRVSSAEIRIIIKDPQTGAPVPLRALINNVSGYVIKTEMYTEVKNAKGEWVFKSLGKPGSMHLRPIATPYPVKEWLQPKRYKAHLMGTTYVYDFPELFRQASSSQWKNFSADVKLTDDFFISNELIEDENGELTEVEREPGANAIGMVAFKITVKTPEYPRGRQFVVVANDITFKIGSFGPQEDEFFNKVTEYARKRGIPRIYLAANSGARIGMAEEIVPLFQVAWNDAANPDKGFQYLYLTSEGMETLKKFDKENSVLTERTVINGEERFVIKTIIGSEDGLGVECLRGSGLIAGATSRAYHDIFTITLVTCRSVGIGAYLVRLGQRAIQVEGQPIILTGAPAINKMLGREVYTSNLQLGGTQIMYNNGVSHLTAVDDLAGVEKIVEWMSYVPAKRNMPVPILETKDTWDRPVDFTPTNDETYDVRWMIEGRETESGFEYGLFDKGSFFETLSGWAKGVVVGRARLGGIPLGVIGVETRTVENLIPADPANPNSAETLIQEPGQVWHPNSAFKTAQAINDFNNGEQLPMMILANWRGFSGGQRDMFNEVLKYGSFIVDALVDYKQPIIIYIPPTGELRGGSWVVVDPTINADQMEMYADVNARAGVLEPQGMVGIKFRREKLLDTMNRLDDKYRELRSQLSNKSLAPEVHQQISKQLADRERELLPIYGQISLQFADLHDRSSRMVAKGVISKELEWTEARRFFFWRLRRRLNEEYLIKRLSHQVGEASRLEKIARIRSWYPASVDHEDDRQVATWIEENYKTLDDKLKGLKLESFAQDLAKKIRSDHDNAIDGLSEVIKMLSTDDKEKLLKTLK

COc1ccc(F)cc1[C@H](Cn1c(=O)n(C(C)(C)C(=O)NC(C)C)c(=O)c2c(C)c(-n3nccn3)sc21)OC[C@@H](C)O [Compound I-45, 2-(1-((R)-2-(5-fluoro-2-methoxyphenyl)-2-((R)-2-hydroxypropoxy)ethyl)-5-methyl-2,4-dioxo-6-(2H-1,2,3-triazol-2-yl)-1,4-dihydro-thieno[2,3-d]pyrimidin-3(2H)-yl)-N-isopropyl-2-methylpropanamide]
IC90 (Septoria tritici (St); read-out: Concentration at 90% Inhibition St, Septoria tritici, growth inhibition at 48 hours vs 2% DMSO control): 2 mg/L (≈ 3.32 µM) | IC90 (Septoria tritici (St); read-out: Concentration at 90% Inhibition St, Septoria tritici, growth inhibition vs 2% DMSO control at 48 hours): 10 mg/L (≈ 16.6 µM) | IC90 (Diplodia maydis (Dm); read-out: Concentration at 90% Inhibition Dm, Diplodia maydis, growth inhibition at 48 hours vs 2% DMSO control): 0.4 mg/L (≈ 0.664 µM) | IC90 (Diplodia maydis (Dm); read-out: Concentration at 90% Inhibition Dm, Diplodia maydis, growth inhibition vs 2% DMSO control at 48 hours): 0.4 mg/L (≈ 0.664 µM) | IC90 (Rhizoctonia solani (Rs); read-out: Concentration at 90% Inhibition Rs, Rhizoctonia solani, mycelial plugs, growth inhibition at 48 hours vs 2% DMSO control): 0.08 mg/L (≈ 0.133 µM) | IC90 (Rhizoctonia solani (Rs); read-out: Concentration at 90% Inhibition Rs, Rhizoctonia solani, mycelial plugs, growth inhibition vs 2% DMSO control at 48 hours): 0.08 mg/L (≈ 0.133 µM) | IC50 (fungal (fACC2); Table 2a): 1 to 5 nM | IC50 (fungal (fACC2); Table 2b, additional results): 1 to 5 nM | IC90 ([1]; read-out: Concentration at 90% Inhibition Cg, Collectotrichum graminicola, growth inhibition at 48 hours vs 2% DMSO control): 0.4 mg/L (≈ 0.664 µM) | IC90 ([1]; read-out: Concentration at 90% Inhibition Cg, Collectotrichum graminicola, growth inhibition vs 2% DMSO control at 48 hours): 0.4 mg/L (≈ 0.664 µM) | IC90 ([2]; read-out: Concentration at 90% Inhibition Fv, Fusarium virguliforme, growth inhibition at 48 hours vs 2% DMSO control): 0.4 mg/L (≈ 0.664 µM) | IC90 ([2]; read-out: Concentration at 90% Inhibition Fv, Fusarium virguliforme, growth inhibition vs 2% DMSO control at 48 hours): 0.4 mg/L (≈ 0.664 µM) | MIC (C. parapsilosis; read-out: MIC, C. parapsilosis ATCC 22019, Table 3a, 3 replicates, MIC recorded at 48 h): 0.25 to 1 mg/L (≈ 0.415 to 1.66 µM) | MIC (C. parapsilosis; read-out: MIC, C. parapsilosis ATCC 22019, Table 3b (additional results), 3 replicates, MIC recorded at 48 h): 1.01 to 2 mg/L (≈ 1.68 to 3.32 µM) | IC50 (human (hACC2); Table 2a): 10 to 40 nM | IC50 (human (hACC2); Table 2b, additional results): 10 to 40 nM | IC90 ([3]; read-out: Concentration at 90% Inhibition Pc, Phytophthora capsici, growth inhibition at 48 hours vs 2% DMSO control): 2 mg/L (≈ 3.32 µM) | IC90 ([3]; read-out: Concentration at 90% Inhibition Pc, Phytophthora capsici, growth inhibition vs 2% DMSO control at 48 hours): 10 mg/L (≈ 16.6 µM) | Concentration at 90% Inhibition Fm [4, 5]: AA (compound concentration of 0.08 ppm at 90% inhibition of fungal pathogens) | IC90 [4]: 0.08 mg/L (≈ 0.133 µM)

COc1ccc(F)cc1[C@H](Cn1c(=O)n(C(C)(C)C(=O)N2CCCC2)c(=O)c2c(C)c(-n3nccn3)sc21)OC[C@@H](C)O [Compound I-46, 1-((R)-2-(5-fluoro-2-methoxyphenyl)-2-((R)-2-hydroxypropoxy)ethyl)-5-methyl-3-(2-methyl-1-oxo-1-(pyrrolidin-1-yl)propan-2-yl)-6-(2H-1,2,3-triazol-2-yl)thieno[2,3-d]pyrimidine-2,4(1H,3H)-dione]
IC90 (Septoria tritici (St); Septoria tritici, growth inhibition at 48 hours vs 2% DMSO control, read-out: Concentration at 90% Inhibition St): > 50 mg/L | IC90 (Septoria tritici (St); Septoria tritici, growth inhibition vs 2% DMSO control at 48 hours, read-out: Concentration at 90% Inhibition St): > 50 mg/L | IC90 (Diplodia maydis (Dm); Diplodia maydis, growth inhibition at 48 hours vs 2% DMSO control, read-out: Concentration at 90% Inhibition Dm): 2 mg/L (≈ 3.25 µM) | IC90 (Diplodia maydis (Dm); Diplodia maydis, growth inhibition vs 2% DMSO control at 48 hours, read-out: Concentration at 90% Inhibition Dm): 2 mg/L (≈ 3.25 µM) | IC90 (Rhizoctonia solani (Rs); mycelial plugs, growth inhibition at 48 hours vs 2% DMSO control, read-out: Concentration at 90% Inhibition Rs): 0.4 mg/L (≈ 0.651 µM) | IC90 (Rhizoctonia solani (Rs); mycelial plugs, growth inhibition vs 2% DMSO control at 48 hours, read-out: Concentration at 90% Inhibition Rs): 0.4 mg/L (≈ 0.651 µM) | IC50 (fungal (fACC2); Table 2a): 1 to 5 nM | IC50 (fungal (fACC2); Table 2b, additional results): 1 to 5 nM | IC90 ([1]; Collectotrichum graminicola, growth inhibition at 48 hours vs 2% DMSO control, read-out: Concentration at 90% Inhibition Cg): 0.4 mg/L (≈ 0.651 µM) | IC90 ([1]; Collectotrichum graminicola, growth inhibition vs 2% DMSO control at 48 hours, read-out: Concentration at 90% Inhibition Cg): 0.4 mg/L (≈ 0.651 µM) | IC90 ([2]; growth inhibition at 48 hours vs 2% DMSO control, read-out: Concentration at 90% Inhibition Fv): 2 mg/L (≈ 3.25 µM) | IC90 ([2]; growth inhibition vs 2% DMSO control at 48 hours, read-out: Concentration at 90% Inhibition Fv): 2 mg/L (≈ 3.25 µM) | MIC (C. parapsilosis; Table 3a, ATCC 22019, 3 replicates, MIC recorded at 48 h, read-out: MIC, C. parapsilosis ATCC 22019): 1.1 to 2 mg/L (≈ 1.79 to 3.25 µM) | MIC (C. parapsilosis; Table 3b (additional results), ATCC 22019, 3 replicates, MIC recorded at 48 h, read-out: MIC, C. parapsilosis ATCC 22019): 1.01 to 2 mg/L (≈ 1.64 to 3.25 µM) | IC50 (human (hACC2); Table 2a): 5 to 10 nM | IC50 (human (hACC2); Table 2b, additional results): 5 to 10 nM | IC90 ([3]; growth inhibition at 48 hours vs 2% DMSO control, read-out: Concentration at 90% Inhibition Pc): > 50 mg/L | IC90 ([3]; growth inhibition vs 2% DMSO control at 48 hours, read-out: Concentration at 90% Inhibition Pc): > 50 mg/L | IC90 [4, 5]: 0.08 mg/L (≈ 0.13 µM) | IC90 ([4]; Fusarium moniliforme, growth inhibition vs 2% DMSO control at 48 hours): 0.08 mg/L (≈ 0.13 µM)
